According to patent US20240092784A1, “CONDENSED HETEROCYCLIC COMPOUND” (NISSAN CHEMICAL CORPORATION, priority 2020, published 2024):
Structures can show the parent of a compound that is named as a salt.

These molecules were tested against human SPR (Homo sapiens (Human), UniProt P35270) (assay: Evaluation Example 2: Measurement of human SPR inhibitory activity (seven concentrations, sepiapterin absorbance at 420 nm)). Details: Evaluation Example 2, seven concentrations 0.14 nM to 100 nM, 240 minutes at room temperature, read-out: IC50.
Sequence of human SPR (P35270 whole entry): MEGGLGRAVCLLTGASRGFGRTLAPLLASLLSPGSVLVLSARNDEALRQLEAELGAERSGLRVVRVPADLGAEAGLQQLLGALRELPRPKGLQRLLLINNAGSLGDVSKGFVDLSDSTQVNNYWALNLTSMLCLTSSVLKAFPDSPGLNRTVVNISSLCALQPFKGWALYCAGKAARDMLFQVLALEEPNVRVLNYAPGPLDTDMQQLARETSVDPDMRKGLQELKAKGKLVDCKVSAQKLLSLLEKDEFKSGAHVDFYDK
Assay type: biochemical
In short: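 Reactions ran 240 min at room temperature in 100 mM Tris-HCl pH 7.5 with 0.01% BSA. They contained tag-cleaved, E. coli-expressed full-length human SPR (diluted to 150 ng/mL), seven compound concentrations from 0.14 to 100 nM, and sepiapterin/NADPH added as a 120 μM/160 μM solution. Inhibition was calculated from sepiapterin absorbance at 420 nm.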
`CC(C)(C)Cn1c(=O)c(C(=O)NC2CC2)c(O)n2nc(-c3cc(F)cnc3N)cc12` [Synthesis Example 285, 2-(2-Amino-5-fluoropyridin-3-yl)-N-cyclopropyl-7-hydroxy-4-neopentyl-5-oxo-4,5-dihydropyrazolo[1,5-a]pyrimidine-6-carboxamide] showed an IC50 of 3.28 nM.
In the case of `CC1(Cn2c(=O)c(C(=O)NC3CC3)c(O)n3ncc(/C=C/C(=O)N4CC5CCC(C4)O5)c23)CC1` [Synthesis Example 368, (E)-3-(3-(8-Oxa-3-azabicyclo[3.2.1]octan-3-yl)-3-oxoprop-1-en-1-yl)-N-cyclopropyl-7-hydroxy-4-((1-methylcyclopropyl)methyl)-5-oxo-4,5-dihydropyrazolo[1,5-a]pyrimidine-6-carboxamide], the IC50 is reported as 0.61 nM.
In the case of `Cc1nn2c(O)c(C(=O)NC3CC3)c(=O)n(CC(C)C)c2c1/C=C/C(=O)N(C)C1CC1` [compound 572, (E)-N-Cyclopropyl-3-(3-(cyclopropyl(methyl)amino)-3-oxoprop-1-en-1-yl)-7-hydroxy-4-isobutyl-2-methyl-5-oxo-4,5-dihydropyrazolo[1,5-a]pyrimidine-6-carboxamide], the IC50 is reported as 1.1 nM.
With `CC(C)(C)Cn1c(=O)c(C(=O)NC2CC2)c(O)n2nc(Nc3cncc(C(N)=O)n3)cc12` [Synthesis Example 345, 2-((6-Carbamoylpyrazin-2-yl)amino)-N-cyclopropyl-7-hydroxy-4-neopentyl-5-oxo-4,5-dihydropyrazolo[1,5-a]pyrimidine-6-carboxamide] the IC50 was 0.92 nM.
For `Cc1nn2c(O)c(C(=O)NC3CC3)c(=O)n(CC(C)C)c2c1/C=C/C(=O)N1CCCC12CCN(C(C)C)CC2` [Synthesis Example 678, (E)-N-Cyclopropyl-7-hydroxy-4-isobutyl-3-(3-(8-isopropyl-1,8-diazaspiro[4.5]decan-1-yl)-3-oxoprop-1-en-1-yl)-2-methyl-5-oxo-4,5-dihydropyrazolo[1,5-a]pyrimidine-6-carboxamide], the IC50 was 1.17 nM.
`CC(C)(C)Cn1c(=O)c(C(=O)NC2CC2)c(O)n2nc3c(c12)CCN3C(N)=O` [Synthesis Example 397, N6-Cyclopropyl-7-hydroxy-4-neopentyl-5-oxo-2,3,4,5-tetrahydro-1H-pyrrolo[2′,3′:3,4]pyrazolo[1,5-a]pyrimidine-1,6-dicarboxamide] gave an IC50 of 1.75 nM.
Work on `CC(C)(C)Cn1c(=O)c(C(=O)NC2CC2)c(O)n2nc(C#N)cc12` [Synthesis Example 279, 2-Cyano-N-cyclopropyl-7-hydroxy-4-neopentyl-5-oxo-4,5-dihydropyrazolo[1,5-a]pyrimidine-6-carboxamide] yielded an IC50 of 1.76 nM.
In the case of `CC(C)(C)Cn1c(=O)c(C(=O)NC2CC2)c(O)n2nc(Nc3cnc(C(=O)NCC(F)F)cn3)cc12` [Synthesis Example 353, N-Cyclopropyl-2-((5-((2,2-difluoroethyl)carbamoyl)pyrazin-2-yl)amino)-7-hydroxy-4-neopentyl-5-oxo-4,5-dihydropyrazolo[1,5-a]pyrimidine-6-carboxamide], the IC50 is reported as 0.82 nM.
`COC[C@@H]1COCCN1C(=O)/C=C/c1cnn2c(O)c(C(=O)NC3CC3)c(=O)n(CC3(F)CC3)c12` [Synthesis Example 383, (R,E)-N-Cyclopropyl-4-((1-fluorocyclopropyl)methyl)-7-hydroxy-3-(3-(3-(methoxymethyl)morpholino)-3-oxoprop-1-en-1-yl)-5-oxo-4,5-dihydropyrazolo[1,5-a]pyrimidine-6-carboxamide] was tested, and the IC50 was 0.82 nM.
With `COCC1CCN(C(=O)/C=C/c2cnn3c(O)c(C(=O)NC4CC4)c(=O)n(CC(C)C)c23)CC1` [compound 475, (E)-N-Cyclopropyl-7-hydroxy-4-isobutyl-3-(3-(4-(methoxymethyl)piperidin-1-yl)-3-oxoprop-1-en-1-yl)-5-oxo-4,5-dihydropyrazolo[1,5-a]pyrimidine-6-carboxamide] the IC50 was 0.85 nM.
Molecule `CC(C)Cn1c(=O)c(C(=O)NC2CC2)c(O)n2ncc(/C=C/C(=O)N3[C@H](C)CC[C@H]3C)c12` [compound 590, N-Cyclopropyl-3-((E)-3-((2R,5R)-2,5-dimethylpyrrolidin-1-yl)-3-oxoprop-1-en-1-yl)-7-hydroxy-4-isobutyl-5-oxo-4,5-dihydropyrazolo[1,5-a]pyrimidine-6-carboxamide] has an IC50 of 1.09 nM.
`CC(C)Cn1c(=O)c(C(=O)NC2CC2)c(O)n2nc(NC(=O)OC(C)(C)C)c(/C=C/C(=O)N3CCC(F)(F)CC3)c12` [Synthesis Example 413, Tert-butyl (E)-(6-(cyclopropylcarbamoyl)-3-(3-(4,4-difluoropiperidin-1-yl)-3-oxoprop-1-en-1-yl)-7-hydroxy-4-isobutyl-5-oxo-4,5-dihydropyrazolo[1,5-a]pyrimidin-2-yl)carbamate] was tested, and the IC50 was 1.32 nM.
With `CC(=O)N1CCC(/C=C/c2cnn3c(O)c(C(=O)NC4CC4)c(=O)n(CC(C)C)c23)CC1` [Synthesis Example 244, (E)-3-(2-(1-Acetylpiperidin-4-yl)vinyl)-N-cyclopropyl-7-hydroxy-4-isobutyl-5-oxo-4,5-dihydropyrazolo[1,5-a]pyrimidine-6-carboxamide] the IC50 was 0.99 nM.
Work on `CC(C)Cn1c(=O)c(C(=O)NC2CC2)c(O)n2ncc(C(=O)NCc3ccncc3)c12` [Synthesis Example 217, N6-Cyclopropyl-7-hydroxy-4-isobutyl-5-oxo-N3-(pyridin-4-ylmethyl)-4,5-dihydropyrazolo[1,5-a]pyrimidine-3,6-dicarboxamide] yielded an IC50 of 0.69 nM.
With `CC(C)Cn1c(=O)c(C(=O)NC2CC2)c(O)n2ncc(C(=O)N3CCOCC3)c12` [Synthesis Example 227, N-Cyclopropyl-7-hydroxy-4-isobutyl-3-(morpholine-4-carbonyl)-5-oxo-4,5-dihydropyrazolo[1,5-a]pyrimidine-6-carboxamide] the IC50 was 0.65 nM.
With `CC(C)Cn1c(=O)c(C(=O)NC2CC2)c(O)n2ncc(/C=C/C(=O)N3CCOCC34CCC4)c12` [compound 547, (E)-N-Cyclopropyl-7-hydroxy-4-isobutyl-5-oxo-3-(3-oxo-3-(8-oxa-5-azaspiro[3,5]nonan-5-yl)prop-1-en-1-yl)-4,5-dihydropyrazolo[1,5-a]pyrimidine-6-carboxamide] the IC50 was 0.74 nM.
`C/C(=C\c1cnn2c(O)c(C(=O)NC3CC3)c(=O)n(CC(C)C)c12)C(=O)O` [Synthesis Example 252, (E)-3-(6-(Cyclopropylcarbamoyl)-7-hydroxy-4-isobutyl-5-oxo-4,5-dihydropyrazolo[1,5-a]pyrimidin-3-yl)-2-methylacrylic acid] gave an IC50 of 7.11 nM.
Work on `CCN1CCC2(CCCN2C(=O)/C=C/c2c(C)nn3c(O)c(C(=O)NC4CC4)c(=O)n(CC(C)C)c23)CC1` [Synthesis Example 667, (E)-N-Cyclopropyl-3-(3-(8-ethyl-1,8-diazaspiro[4.5]decan-1-yl)-3-oxoprop-1-en-1-yl)-7-hydroxy-4-isobutyl-2-methyl-5-oxo-4,5-dihydropyrazolo[1,5-a]pyrimidine-6-carboxamide] yielded an IC50 of 0.94 nM.
`CC(C)Cn1c(=O)c(C(=O)NC2CC2)c(O)n2ncc(CCc3ccc(C(F)(F)F)nc3)c12` [Synthesis Example 251, N-Cyclopropyl-7-hydroxy-4-isobutyl-5-oxo-3-(2-(6-(trifluoromethyl)pyridin-3-yl)ethyl)-4,5-dihydropyrazolo[1,5-a]pyrimidine-6-carboxamide] gave an IC50 of 1.74 nM.
`COC[C@H]1CCCN1C(=O)/C=C/c1c(C)nn2c(O)c(C(=O)NC3CC3)c(=O)n(CC(C)C)c12` [Synthesis Example 612, (R,E)-N-Cyclopropyl-7-hydroxy-4-isobutyl-3-(3-(2-(methoxymethyl)pyrrolidin-1-yl)-3-oxoprop-1-en-1-yl)-2-methyl-5-oxo-4,5-dihydropyrazolo[1,5-a]pyrimidine-6-carboxamide] showed an IC50 of 1.23 nM.
With `Cc1nn2c(O)c(C(=O)NC3CC3)c(=O)n(CC(C)C)c2c1/C=C/C(=O)N1[C@H](C)CC[C@@H]1C` [Synthesis Example 618, N-Cyclopropyl-3-((E)-3-(cis-2,5-dimethylpyrrolidin-1-yl)-3-oxoprop-1-en-1-yl)-7-hydroxy-4-isobutyl-2-methyl-5-oxo-4,5-dihydropyrazolo[1,5-a]pyrimidine-6-carboxamide] the IC50 was 1.8 nM.
With `CC(C)Cn1c(=O)c(C(=O)NC2CC2)c(O)n2ncc(/C=C/C(=O)N3CC[C@@H](F)C3)c12` [compound 481, (R,E)-N-Cyclopropyl-3-(3-(3-fluoropyrrolidin-1-yl)-3-oxoprop-1-en-1-yl)-7-hydroxy-4-isobutyl-5-oxo-4,5-dihydropyrazolo[1,5-a]pyrimidine-6-carboxamide] the IC50 was 0.75 nM.
`CC(C)Cn1c(=O)c(C(=O)N[C@@H](C)C(F)(F)F)c(O)n2nc(N)c(/C=C/C(=O)N3CCC(F)(F)CC3)c12` [Synthesis Example 421, (S,E)-2-Amino-3-(3-(4,4-difluoropiperidin-1-yl)-3-oxoprop-1-en-1-yl)-7-hydroxy-4-isobutyl-5-oxo-N-(1,1,1-trifluoropropan-2-yl)-4,5-dihydropyrazolo[1,5-a]pyrimidine-6-carboxamide hydrochloride] was tested, and the IC50 was 0.77 nM.

Same assay, conditions: sepiapterin absorbance, Table 41, read-out: concentration at 50% inhibition of human SPR (IC50)
`Cc1nn2c(O)c(C(=O)NC3CC3)c(=O)n(CC(C)(C)F)c2c1/C=C/C(=O)N1CCOCC1` [Synthesis Example 747, (E)-N-Cyclopropyl-4-(2-fluoro-2-methylpropyl)-7-hydroxy-2-methyl-3-(3-morpholino-3-oxoprop-1-en-1-yl)-5-oxo-4,5-dihydropyrazolo[1,5-a]pyrimidine-6-carboxamide] gave an IC50 of 0.74 nM.
Work on `Cc1nn2c(O)c(C(=O)NC3CC3)c(=O)n(CC(C)(C)C)c2c1/C=C/C(=O)N1CCN(C2CC(F)(F)C2)CC1` [Synthesis Example 692, (E)-N-Cyclopropyl-3-(3-(4-(3,3-difluorocyclobutyl)piperazin-1-yl)-3-oxoprop-1-en-1-yl)-7-hydroxy-2-methyl-4-neopentyl-5-oxo-4,5-dihydropyrazolo[1,5-a]pyrimidine-6-carboxamide] yielded an IC50 of 0.8 nM.
